How the values were obtained:
[1] = Metabolic stability in liver microsomes (MLM); type: in vitro ADME, mice; conditions: 0.25 mg/mL protein
In short: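 Mouse liver microsomes (0.25 mg/mL protein) in 50 mM potassium phosphate pH 7.4 at 37 °C with 1 µM compound, 1 mM NADPH, 0.1% DMSO; sampled 0–60 min in duplicate. LC-MS/MS parent depletion gives half-life; CL'int in mL/min/kg scaled with 45 mg protein/g liver, 90 g liver.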

BRN2 = target: T1, BRN2 (Homo sapiens, UniProt P20265); assay: Drug Affinity Responsive Target Stability (DARTS) assay; conditions: printed in BLI binding column; 42D^ENZR lysate
T1 sequence (P20265 1-443): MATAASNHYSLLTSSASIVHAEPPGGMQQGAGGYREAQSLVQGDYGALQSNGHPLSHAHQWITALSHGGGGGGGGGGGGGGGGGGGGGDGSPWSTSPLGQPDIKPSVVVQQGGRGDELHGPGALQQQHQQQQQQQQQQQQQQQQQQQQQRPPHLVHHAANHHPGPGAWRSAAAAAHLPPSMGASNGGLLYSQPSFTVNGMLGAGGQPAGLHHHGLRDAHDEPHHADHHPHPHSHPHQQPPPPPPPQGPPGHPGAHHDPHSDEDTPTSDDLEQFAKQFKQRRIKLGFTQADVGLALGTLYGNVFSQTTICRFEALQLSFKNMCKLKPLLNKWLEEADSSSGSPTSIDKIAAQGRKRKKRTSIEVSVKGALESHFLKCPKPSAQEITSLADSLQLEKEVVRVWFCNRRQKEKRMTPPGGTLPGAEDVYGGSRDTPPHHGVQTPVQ
Experimental: Step 2: Drug Affinity Responsive Target Stability (DARTS) Assay
This in cell assay provides a yes/no answer to direct interaction between BRN2 inhibitor and protein.
1) Prepare and place the following on ice: • Pronase • TNC 10× • 500 mM Tris-HCl (pH 8.0) • 500 mM NaCl, 100 mM CaCl2 • DMSO • Drug • 10 mL NP40+Protease inhibitor+Phosphatase inhibitor solution (can store in 4° C. and use for up to 4 weeks): • 2 mL NP40 5× • 8 mL ddH2O • 1 PhosphoSTOP™ pill • 200 uL protease inhibitor 50×
2) Remove the growth medium from the cell plate (42D^ENZR) and add 10 mL of cold PBS/vanadate.
3) Scrape the cells. Remove the PBS-cell solution and add in a falcon tube.
4) Name a new 1.5 ml Eppendorf tube and put on ice to pre-chill.
5) Centrifuge the cells at 1500 for 5 minutes at 4° C. Remove supernatant and re-suspend the cells in 600 uL NP40 lysis buffer by pipetting up and down. If the cell pellet is small use less volume, for example 300 μl)
6) Transfer the lysing cells into the pre-chilled Eppendorf tube. Incubate on ice for 20 minutes. If not continuing the DARTS on the same day, you can put the lysate in −30 and work on it later.
Preparing Cell Lysates for DARTS:
7) Centrifuge the tube at maximum speed for 25-30 minutes at 4° C.
8) Discard the pellet (either transfer the supernatant in a new tube or just take out the pellet). […]
20) The samples are ready for Western blot gel running. […]

42D^ENZR cells = assay: Cell proliferation, BRN2 expressing 42D cells (crystal violet); type: cell-based; conditions: 42D (express BRN2) versus 16D (no BRN2) cells, about 72 hours; result in words
In short: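 42D^ENZR (~7000/well) and 16D^CRPC (~5000/well) cells plated, compound added next day from 3× media stocks. After ~72 hours, cells fixed with glutaraldehyde, stained with crystal violet, dye eluted in Sorensen solution; absorbance read at 590 nm.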

- half-life at 1 μM ([1]; mouse, liver microsomes, pH 7.4, 1 μM compound, read-out: T1/2 in mins (MLM)): > 1 h
- Met Stab % (60 mins) MLM ([1]; percent remaining at 60 min, 1 μM compound, 1 mM NADPH): 78%
- binding observed using DARTS assay (BRN2): DARTS- good binding
SMILES: FC(F)(F)c1ccc2c(c1)/C(=N\Nc1nc3ccccc3s1)CC2 [7-36]
- Growth Specificity (42D^ENZR cells): Specific to 42D, but weak activity
